Assay results as given in PubChem BioAssay AID256 (DTP/NCI, 2004).
Where “and” joins values, the source holds several entries; their conditions need not be identical. Identical values can stand only once. Toxic doses and inconclusive results are not listed.

System: CD2F1 mice, L1210 leukemia ip, survival T/C
Assay: NCI In Vivo Anticancer Drug Screen. Data for tumor model L1210 Leukemia (intraperitoneal) in CD2F1 (CDF1) mice
Conditions: higher = longer survival
Method in brief: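 Vehicle-treated tumor-bearing mice served as controls (C) for compound-treated mice (T). Reported figure is T divided by C.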

[1] = endpoint: mean survival time, dose: 100.0 mg/kg/injection, schedule: Q04DX003 (ip), vehicle: saline with Tween-80
[2] = endpoint: mean survival time, dose: 200.0 mg/kg/injection, schedule: Q04DX003 (ip), vehicle: saline with Tween-80
[3] = endpoint: mean survival time, dose: 400.0 mg/kg/injection, schedule: Q04DX003 (ip), vehicle: saline with Tween-80
[4] = endpoint: mean survival time, dose: 6.25 mg/kg/injection, schedule: Q04DX003 (ip), vehicle: saline
[5] = endpoint: mean survival time, dose: 25.0 mg/kg/injection, schedule: Q04DX003 (ip), vehicle: saline
[6] = endpoint: mean survival time, dose: 50.0 mg/kg/injection, schedule: Q04DX003 (ip), vehicle: saline
[7] = endpoint: mean survival time, dose: 100.0 mg/kg/injection, schedule: Q04DX003 (ip), vehicle: saline
[8] = endpoint: mean survival time, dose: 200.0 mg/kg/injection, schedule: Q04DX003 (ip), vehicle: saline
[9] = endpoint: mean survival time, dose: 400.0 mg/kg/injection, schedule: Q04DX003 (ip), vehicle: saline
[10] = endpoint: mean survival time, dose: 100.0 mg/kg/injection, schedule: Q01DX009 (ip), vehicle: saline with Tween-80
[11] = endpoint: mean survival time, dose: 200.0 mg/kg/injection, schedule: Q01DX009 (ip), vehicle: saline with Tween-80
[12] = endpoint: mean survival time, dose: 100.0 mg/kg/injection, schedule: Q04DX002 (ip), vehicle: saline
[13] = endpoint: mean survival time, dose: 200.0 mg/kg/injection, schedule: Q04DX002 (ip), vehicle: saline
[14] = endpoint: mean survival time, dose: 400.0 mg/kg/injection, schedule: Q04DX002 (ip), vehicle: saline

O=C1NC(=O)C2C3C=CC(C3)C12 (configuration not stated)
T/C (endpoint: mean survival time, dose: 12.5 mg/kg/injection, schedule: Q04DX002 (ip), vehicle: saline with Tween-80): 93 % of control | T/C (endpoint: mean survival time, dose: 25.0 mg/kg/injection, schedule: Q04DX002 (ip), vehicle: saline with Tween-80): 93 % of control | T/C (endpoint: mean survival time, dose: 50.0 mg/kg/injection, schedule: Q04DX002 (ip), vehicle: saline with Tween-80): 97 % of control | T/C (endpoint: mean survival time, dose: 100.0 mg/kg/injection, schedule: Q01DX009 (ip), vehicle: saline sonified): 96 % of control | T/C [1]: 94 % of control | T/C (endpoint: mean survival time, dose: 200.0 mg/kg/injection, schedule: Q01DX009 (ip), vehicle: saline sonified): 96 % of control | T/C [2]: 101 % of control | T/C (endpoint: mean survival time, dose: 400.0 mg/kg/injection, schedule: Q01DX009 (ip), vehicle: saline sonified): 98 % of control | T/C [3]: 100 % of control

C#CCOCC(O)C[As](=O)(O)c1cccc(Cl)c1 (configuration not stated)
T/C [4]: 104 % of control

COC12CC3C4CCC5CC(O)CCC5(C)C4CCC3(C)C1C(C)C1(CCC(C)CO1)O2 (configuration not stated)
T/C [1]: 100 % of control | T/C [2]: 96 % of control | T/C [3]: 92 % of control

COc1cc(Br)c(CCNC(=O)Cc2cc(OC)c(OC)cc2Br)cc1OC
T/C [1]: 91 % of control | T/C [2]: 86 % of control

CC(C)NC(=O)CCCCn1c(=O)c2ccccc2c(=O)n1C
T/C [5]: 96 % of control | T/C [6]: 96 % of control | T/C [7]: 98 % of control | T/C [8]: 113 % of control | T/C [9]: 104 % of control

C=C(NC(=O)C(=C)NC(=O)c1csc(C2=NC3c4csc(n4)C4NC(=O)c5csc(n5)C(C(C)(O)C(C)O)NC(=O)C5CSC(=N5)/C(=C/C)NC(=O)C(C(C)O)NC(=O)c5csc(n5)C3(CC2)NC(=O)C(C)NC(=O)C(=C)NC(=O)C(=C)NC(=O)C(C(C)C)NC2C=Cc3c(C(C)O)cc(nc3C2O)C(=O)OC4C)n1)C(N)=O (configuration not stated)
T/C (endpoint: mean survival time, dose: 3.12 mg/kg/injection, schedule: Q01DX009 (ip), vehicle: saline): 107 % of control | T/C (endpoint: mean survival time, dose: 6.25 mg/kg/injection, schedule: Q01DX009 (ip), vehicle: saline): 113 % of control | T/C (endpoint: mean survival time, dose: 12.5 mg/kg/injection, schedule: Q01DX009 (ip), vehicle: saline): 124 % of control and 108 % of control | T/C (endpoint: mean survival time, dose: 25.0 mg/kg/injection, schedule: Q01DX009 (ip), vehicle: saline): 113 % of control and 115 % of control | T/C (endpoint: mean survival time, dose: 50.0 mg/kg/injection, schedule: Q01DX009 (ip), vehicle: saline): 120 % of control | T/C (endpoint: mean survival time, dose: 100.0 mg/kg/injection, schedule: Q01DX009 (ip), vehicle: saline): 113 % of control and 124 % of control | T/C (endpoint: mean survival time, dose: 200.0 mg/kg/injection, schedule: Q01DX009 (ip), vehicle: saline): 124 % of control and 108 % of control

COc1cc(C(=O)N/N=C/c2ccc(N(C)C)cc2)cc(OC)c1OC
T/C [10]: 119 % of control | T/C [11]: 98 % of control

COc1cc(NCCCCCCCNC(C)C)c2nccc(C)c2c1
T/C (endpoint: median survival time, dose: 3.12 mg/kg/injection, schedule: Q01DX009 (ip), vehicle: saline): 98 % of control | T/C (endpoint: median survival time, dose: 6.25 mg/kg/injection, schedule: Q01DX009 (ip), vehicle: saline): 102 % of control | T/C (endpoint: median survival time, dose: 12.5 mg/kg/injection, schedule: Q01DX009 (ip), vehicle: saline): 97 % of control

CC(=O)CC1CC2(CCC1=O)OCCO2 (configuration not stated)
T/C [10]: 102 % of control | T/C [1]: 98 % of control | T/C [11]: 96 % of control | T/C [2]: 93 % of control | T/C (endpoint: mean survival time, dose: 400.0 mg/kg/injection, schedule: Q01DX009 (ip), vehicle: saline with Tween-80): 100 % of control | T/C [3]: 102 % of control

CN(C)N=Nc1ccccc1C(N)=O
T/C (endpoint: mean survival time, dose: 18.8 mg/kg/injection, schedule: Q01DX009 (ip), vehicle: Klucel (hydroxypropylcellulose) (HPC)): 106 % of control | T/C (endpoint: mean survival time, dose: 37.5 mg/kg/injection, schedule: Q01DX009 (ip), vehicle: Klucel (hydroxypropylcellulose) (HPC)): 117 % of control and 106 % of control | T/C (endpoint: mean survival time, dose: 75.0 mg/kg/injection, schedule: Q01DX009 (ip), vehicle: Klucel (hydroxypropylcellulose) (HPC)): 116 % of control and 123 % of control | T/C (endpoint: mean survival time, dose: 100.0 mg/kg/injection, schedule: Q01DX009 (ip), vehicle: Klucel (hydroxypropylcellulose) (HPC)): 151 % of control | T/C (endpoint: mean survival time, dose: 150.0 mg/kg/injection, schedule: Q01DX009 (ip), vehicle: Klucel (hydroxypropylcellulose) (HPC)): 123 % of control and 86 % of control and 101 % of control

N#Cc1c(NC(=S)NC2OC(COCc3ccccc3)C(OCc3ccccc3)C2OCc2ccccc2)ncn1Cc1ccccc1 (configuration not stated)
T/C (endpoint: mean survival time, dose: 50.0 mg/kg/injection, schedule: Q01DX009 (ip), vehicle: acetone): 94 % of control | T/C (endpoint: mean survival time, dose: 100.0 mg/kg/injection, schedule: Q01DX009 (ip), vehicle: acetone): 98 % of control | T/C (endpoint: mean survival time, dose: 100.0 mg/kg/injection, schedule: Q04DX003 (ip), vehicle: acetone): 91 % of control | T/C (endpoint: mean survival time, dose: 200.0 mg/kg/injection, schedule: Q01DX009 (ip), vehicle: acetone): 93 % of control | T/C (endpoint: mean survival time, dose: 200.0 mg/kg/injection, schedule: Q04DX003 (ip), vehicle: acetone): 91 % of control

Cc1[nH]c2cc(Cl)ccc2c1CC(=O)O
T/C (endpoint: mean survival time, dose: 100.0 mg/kg/injection, schedule: Q01DX001 (ip), vehicle: other): 101 % of control | T/C (endpoint: mean survival time, dose: 200.0 mg/kg/injection, schedule: Q01DX001 (ip), vehicle: other): 98 % of control | T/C (endpoint: mean survival time, dose: 400.0 mg/kg/injection, schedule: Q01DX001 (ip), vehicle: other): 98 % of control

Cc1ccc(N)c(Br)c1
T/C [5]: 111 % of control | T/C [6]: 100 % of control | T/C [1]: 92 % of control | T/C [7]: 98 % of control and 100 % of control | T/C [2]: 98 % of control

Cc1cccc(NC(=O)COc2ccc(Cl)cc2C)c1
T/C (endpoint: mean survival time, dose: 100.0 mg/kg/injection, schedule: Q04DX002 (ip), vehicle: saline with Tween-80): 110 % of control | T/C (endpoint: mean survival time, dose: 200.0 mg/kg/injection, schedule: Q04DX002 (ip), vehicle: saline with Tween-80): 94 % of control | T/C (endpoint: mean survival time, dose: 400.0 mg/kg/injection, schedule: Q04DX002 (ip), vehicle: saline with Tween-80): 98 % of control

CCC(C)(O)C(C)N(C)c1ccccc1 (configuration not stated)
T/C [7]: 102 % of control and 97 % of control | T/C [8]: 102 % of control and 100 % of control | T/C [9]: 102 % of control and 106 % of control

CCCCC1CCCCCCc2[nH]c(/C=C3\N=C(c4ccc[nH]4)C=C3OC)cc21 (configuration not stated)
T/C (endpoint: mean survival time, dose: 0.12 mg/kg/injection, schedule: Q01DX009 (ip), vehicle: saline with Tween-80): 103 % of control | T/C (endpoint: mean survival time, dose: 0.25 mg/kg/injection, schedule: Q01DX009 (ip), vehicle: saline with Tween-80): 107 % of control | T/C (endpoint: mean survival time, dose: 0.5 mg/kg/injection, schedule: Q01DX009 (ip), vehicle: saline with Tween-80): 116 % of control | T/C (endpoint: mean survival time, dose: 1.0 mg/kg/injection, schedule: Q01DX009 (ip), vehicle: saline with Tween-80): 105 % of control | T/C (endpoint: mean survival time, dose: 2.0 mg/kg/injection, schedule: Q01DX009 (ip), vehicle: saline with Tween-80): 106 % of control

CCCCCCCCCCCC(=O)[O][Sn]([CH2]CCC)([CH2]CCC)[O]C(=O)CCCCCCCCCCC
T/C (endpoint: mean survival time, dose: 3.0 mg/kg/injection, schedule: Q04DX003 (ip), vehicle: saline with Tween-80): 100 % of control | T/C (endpoint: mean survival time, dose: 6.0 mg/kg/injection, schedule: Q04DX003 (ip), vehicle: saline with Tween-80): 103 % of control | T/C (endpoint: mean survival time, dose: 12.0 mg/kg/injection, schedule: Q04DX003 (ip), vehicle: saline with Tween-80): 103 % of control

C[N+]1(C)CCC(OC(=O)C(O)(c2ccccc2)C2CCCC2)C1 (configuration not stated)
T/C (endpoint: mean survival time, dose: 3.13 mg/kg/injection, schedule: Q04DX003 (ip), vehicle: saline): 87 % of control | T/C [4]: 98 % of control | T/C (endpoint: mean survival time, dose: 12.5 mg/kg/injection, schedule: Q04DX003 (ip), vehicle: saline with Tween-80): 100 % of control | T/C (endpoint: mean survival time, dose: 12.5 mg/kg/injection, schedule: Q04DX003 (ip), vehicle: saline): 90 % of control | T/C (endpoint: mean survival time, dose: 25.0 mg/kg/injection, schedule: Q01DX001 (ip), vehicle: saline): 104 % of control | T/C (endpoint: mean survival time, dose: 25.0 mg/kg/injection, schedule: Q04DX003 (ip), vehicle: saline with Tween-80): 94 % of control | T/C [5]: 103 % of control | T/C (endpoint: mean survival time, dose: 50.0 mg/kg/injection, schedule: Q01DX001 (ip), vehicle: saline): 106 % of control | T/C (endpoint: mean survival time, dose: 50.0 mg/kg/injection, schedule: Q04DX003 (ip), vehicle: saline with Tween-80): 103 % of control | T/C [6]: 95 % of control | T/C (endpoint: mean survival time, dose: 100.0 mg/kg/injection, schedule: Q01DX001 (ip), vehicle: saline): 102 % of control and 105 % of control | T/C [12]: 97 % of control | T/C [1]: 108 % of control | T/C [7]: 113 % of control and 88 % of control | T/C [13]: 112 % of control | T/C [14]: 104 % of control

CCC[n+]1c(C)oc2ccc(-c3ccccc3)cc21
T/C [1]: 100 % of control | T/C [2]: 101 % of control

OCC1(CO)CCCC(CO)(CO)C1O
T/C [12]: 94 % of control | T/C [13]: 94 % of control | T/C [14]: 94 % of control

CCOP(=S)(OCC)Oc1cccc(NC(=O)N(C)C)c1
T/C [1]: 96 % of control | T/C [2]: 91 % of control | T/C [3]: 99 % of control

Cc1c(Cl)c(N)c(Cl)c(Cl)c1Cl
T/C [1]: 101 % of control | T/C [2]: 104 % of control | T/C [3]: 96 % of control
